# From patent publication US20240148675A1, “TOPICAL COMPOSITIONS AND METHODS FOR TREATMENT” (Atossa Therapeutics, Inc., priority 2017, published 2024)
# Experiments:
# [1] = Stability of endoxifen free base in polar organic solvents in the absence and presence of skin; assay type: physicochemical; conditions: for potency and stability in the solvents in the presence of skin: compared with potency in absence of skin after 2 days; for % Potency: relative to initiation of study
# Method: (§1) HPLC-UV. Briefly, (E)- and (Z)-endoxifen were analyzed by High Performance Liquid Chromatography, HPLC (instrument: Agilent 1100) using a UV detector (Agilent). Chromatographic resolution was obtained using a Luna Phenyl Hexyl Column ([…]×150 mm) at a column temperature of 40° C. Samples were injected in an injection volume of 10 ul and run at a flow rate of 1.0 ml/min. The mobile phase system used consisted of: A) water with 10 mM ammonium formate (HCOONH4) with 0.03% formic acid and B) Methanol with 10 mM ammonium formate (HCOONH4).
# The stability studies of endoxifen free base in various pure polar organic solvents/MPEs were performed as described below. Accelerated stability studies of (Z)-endoxifen free base in solvents/MPEs were performed over a course of 2 days at 45° C. in both the presence and the absence of human cadaver skin to assess the degree to which the (Z)-endoxifen conversion to (E)-endoxifen by isomerization and or chemical degradation of the endoxifen is accelerated upon contact with skin and skin components. (Z)-Endoxifen solutions at ˜80% of saturation concentrations were prepared in 1 ml batches in solvents as listed below in the Table 3. The potencies of (Z)-endoxifen and (E)-endoxifen were determined by HPLC-UV analysis as described above. Potency results are shown compared with potencies measured when the sample were stored at the initiation of stability study.
# [2] = aqueous medium, 45° C., day 15, starting from 98%; cited from earlier work
# [3] = Solubility of (Z) and (E)-endoxifen in polar organic solvents (HPLC-UV); assay type: physicochemical
# Method: (Z)-endoxifen free base was synthesized as described above in Example 1. (Z)-endoxifen was solubilized in various solvents as provided in Table 1, and tested for physical and chemical stability in solution. The solutions were prepared in ˜1 ml batches typically for solubility and stability testing. The mixture was stirred overnight on a rotisserie at room temperature. The next, […], the suspension was filtered using a syringe filter (0.2 um pore size GHP membrane). The filtrated solution was then analyzed for the concentration of (Z)-endoxifen and (E)-endoxifen as using a validated HPLC-UV method as described below.
# as §1
# UV detection of (E)-endoxifen and (Z)-endoxifen isomers was performed at 243 nm with a run time of 30 minutes. Retention times for (E)-endoxifen and (Z)-endoxifen were 15.14 m and 16.25 m respectively. […]
# [4] = in Diethyl Sebacate, 45° C. + skin (human cadaver), 2 days
# [5] = in Diethylene glycol monoethyl ether, 45° C. + skin (human cadaver), 2 days
# [6] = in Dimethyl Isosorbide, 45° C. + skin (human cadaver), 2 days
# [7] = in Dipropylene Glycol, 45° C. + skin (human cadaver), 2 days
# [8] = in Isopropyl Myristate, 45° C. + skin (human cadaver), 2 days
# [9] = in PEG 300, 45° C. + skin (human cadaver), 2 days
potency and stability in the solvents in the presence of skin ([1]; 45° C.),"% Potency [1, 4] [%]","% Potency [1, 5] [%]","% Potency [1, 6] [%]","% Potency [1, 7] [%]","% Potency [1, 8] [%]","% Potency [1, 9] [%]","% Potency ([1]; in Diisopropyl Adipate, 45° C. + skin (human cadaver), 2 days) [%]",stability of (Z)-endoxifen in polar organic solvents ([3]; polar organic solvents of Table 1),"stability of dissolved endoxifen ([1]; dissolved in dimethyl isosorbide and isopropyl myristate, 2 days, 45° C.)","solubility in polar organic solvents/MPEs ([3]; DMSO, ethanol, diethylene monoethyl ether, and oleic acid)",Structure (SMILES),(Z)-endoxifen remaining after degradation [2] [%]
maintained potency and stability,99,98,16,95,68,92,–,–,–,–,CC/C(=C(/c1ccc(O)cc1)c1ccc(OCCNC)cc1)c1ccccc1 [(E)-endoxifen free base],–
–,–,–,–,–,–,–,–,–,–,–,CC/C(=C(\c1ccc(O)cc1)c1ccc(OCCNC)cc1)c1ccccc1.Cl [(Z)-endoxifen HCl],75
maintained potency and stability,94,98,17,94,63,92,99,surprisingly stable,–,–,"CC/C(=C(\c1ccc(O)cc1)c1ccc(OCCNC)cc1)c1ccccc1 [(Z)-endoxifen free base, (Z)-4-(1-(4-(2-(methylamino)ethoxy)phenyl)-2-phenylbut-1-enyl)phenol]",–
–,–,–,–,–,–,–,–,–,poor stability,significantly soluble,"CC/C(=C(\c1ccc(O)cc1)c1ccc(OCCNC)cc1)c1ccccc1 [Total Endoxifen free base, (E/Z)-4-[1-[4-[2-(Methylamino)ethoxy]phenyl]-2-phenyl-1-buten-1-yl]-phenol]",–
